The text below walks through data of patent US11202773B2, “Locally bioavailable drugs” (UNIVERSITY OF HOUSTON SYSTEM, priority 2015, dated 2021).

In one data set the target is recombinant human COX-1 (Homo sapiens, UniProt P23219). The data set is described as follows: In vitro enzyme assay, recombinant human COX-1. The following applies: read-out: IC50 against recombinant human COX-1. It counts as biochemical.
Data set [1] has as its target T1, human COX-2 (Homo sapiens, UniProt P35354).
T1 sequence (P35354 18-604): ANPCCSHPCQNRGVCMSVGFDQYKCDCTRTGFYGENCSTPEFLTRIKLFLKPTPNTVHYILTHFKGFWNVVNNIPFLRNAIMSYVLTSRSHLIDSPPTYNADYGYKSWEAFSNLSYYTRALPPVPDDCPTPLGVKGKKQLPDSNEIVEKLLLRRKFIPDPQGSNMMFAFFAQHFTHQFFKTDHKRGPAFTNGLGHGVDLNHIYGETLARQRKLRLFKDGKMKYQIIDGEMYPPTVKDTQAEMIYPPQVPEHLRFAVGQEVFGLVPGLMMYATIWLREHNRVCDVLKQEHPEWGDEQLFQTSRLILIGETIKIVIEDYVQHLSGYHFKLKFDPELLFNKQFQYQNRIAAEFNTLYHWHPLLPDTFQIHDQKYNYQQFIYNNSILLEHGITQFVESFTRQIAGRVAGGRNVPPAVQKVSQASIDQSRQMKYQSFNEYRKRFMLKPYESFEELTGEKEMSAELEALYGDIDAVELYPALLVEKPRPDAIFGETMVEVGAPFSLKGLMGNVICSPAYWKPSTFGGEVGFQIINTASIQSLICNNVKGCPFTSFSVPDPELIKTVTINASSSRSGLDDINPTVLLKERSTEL
Description: In vitro enzyme assay, recombinant human COX-2 (PGE2 production). It counts as biochemical. The note with it: read-out: IC50 against recombinant human COX-2. An excerpt:
FIG. 3A is a bar graph illustration of PGE2 production by recombinant human COX-2 enzyme in the presence of the new compounds. Less PGE2 production means inhibition of COX-2 enzyme.
FIG. 3B is a bar graph illustration of PGE2 production by recombinant human COX-2 enzyme in the presence of the metabolites of the new compounds. Less PGE2 production means inhibition of COX-2 enzyme.

A further data set has as its system rat liver microsomes. The data set is described as follows: Glucuronidation by rat liver microsomes. Type of data set: in vitro ADME. On the procedure: (§1) FIG. 5A is a bar graph illustrating in vitro metabolism of phenolics via glucuronidation pathway. Glucuronidation rates of all the new locally bioavailable COX-2 inhibitors by rat liver microsomes. Additional metabolic rates of various locally bioavailable COX-2 inhibitors are in Table 3. […]. The incubation systems were: for glucuronidation, 0.88 mM magnesium chloride (MgCl2), 4.4 mM saccharolactone, 0.022 mg/mL alamethicin, 3.5 mM uridine 5′-diphospho-glucuronic acid (UDPGA), 10 μM substrates and different concentrations of microsomes in 50 mM potassium phosphate buffer (pH 7.4); for sulfation, 10 mM dithiothreitol (DTT), 5 mM MgCl2, 100 μM 3′-phosphoadenosine-5′-phosphosulfate (PAPS),10 μM substrate and different concentrations of S9 fractions in 50 mM potassium phosphate buffer (pH 7.4).
(§2) In vitro tools were employed to help predict the in vivo metabolism rates of the COX-2 inhibitors that are phenolics. The microsomes and S9 fractions prepared from colon or liver were used to determine the in vivo glucuronidation and sulfation rates of the phenolic compounds, respectively. By employing microsomes and S9 fractions prepared from both rats and humans, it could be determined if the results obtained in the rat model could be reasonably extrapolated to humans. In these experiments, raloxifene and genistein, two phenolic compounds which undergo extensive first-pass metabolism, were selected as controls.

The subject of data set [2] is human intestine microsomes. Description: Glucuronidation by human intestine microsomes. It counts as in vitro ADME. On the procedure:
as §1, with “FIG. 5D” for “FIG. 5A”, “of phenolics.” for “of phenolics via glucuronidation pathway.”, “of 6a1-6a4” for “of all the new locally bioavailable COX-2 inhibitors”, “by human” for “by rat”, “liver and intestinal” for “liver”, “Table 4.” for “Table 3.”
as §2

The target in data set [3] is T1, human COX-2. The data set is described as follows: COX-2 activity (PGE2 production) in HCA-7 cells after A23187. It counts as cell-based. On the set-up: HCA-7 is a human colon cancer cell line in which COX-2 protein is constitutively expressed; endogenous in cells; host or cells: HCA-7. The following applies: 30 min pre-incubation, 10 μM A23187, another 30 minutes. On the procedure: (§3) First, the inhibitory effects of the new synthesized compounds on COX-2 were assayed in two cell lines: Raw264.7 cells and HCA-7 cells. Raw264.7 is a mouse macrophage cell line which expresses a high level of COX-2 protein upon lipopolysaccharide (LPS) induction. […] The concentration of prostaglandins (both PGD2 and PGE2) accumulated in the cell culture medium can be employed as an indicator of COX-2 activity. HCA-7 is a human colon cancer cell line in which COX-2 protein is constitutively expressed. Briefly, the cells were pre-incubated with different concentrations of the new compounds for 30 min, and then 10 μM A23187 (a calcium ionophore) was added to release membrane-bound arachidonic acid (the natural substrate of COX-2) to the cytosolic domain. The system was incubated for another 30 minutes and PGE2 concentrations in the culture medium were determined. In both cell lines, higher PGD2/PGE2 concentrations in the media meant more COX-2 activity.

For another data set, the target named is T2, mouse COX-2 (Mus musculus, UniProt Q05769).
T2 construct: Raw264.7 is a mouse macrophage cell line which expresses a high level of COX-2 protein upon lipopolysaccharide (LPS) induction; endogenous in cells; host or cells: Raw264.7 (LPS-induced)
T2 sequence (Q05769 18-604): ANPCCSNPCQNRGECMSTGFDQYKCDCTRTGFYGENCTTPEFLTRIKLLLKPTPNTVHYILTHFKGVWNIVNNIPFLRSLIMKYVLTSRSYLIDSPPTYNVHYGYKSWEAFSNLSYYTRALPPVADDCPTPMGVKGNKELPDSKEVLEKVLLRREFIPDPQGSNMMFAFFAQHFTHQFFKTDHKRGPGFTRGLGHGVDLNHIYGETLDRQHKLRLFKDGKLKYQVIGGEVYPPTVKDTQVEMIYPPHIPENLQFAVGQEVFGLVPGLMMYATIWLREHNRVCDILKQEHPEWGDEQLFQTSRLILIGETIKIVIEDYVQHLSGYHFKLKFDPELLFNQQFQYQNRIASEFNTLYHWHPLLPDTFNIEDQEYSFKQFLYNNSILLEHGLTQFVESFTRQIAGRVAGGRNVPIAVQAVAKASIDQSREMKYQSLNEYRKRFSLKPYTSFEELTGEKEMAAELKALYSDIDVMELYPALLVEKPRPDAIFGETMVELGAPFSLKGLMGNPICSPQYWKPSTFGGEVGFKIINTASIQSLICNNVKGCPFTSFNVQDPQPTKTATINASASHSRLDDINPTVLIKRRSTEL
Description: COX-2 activity (PGD2/PGE2 production) in LPS-induced Raw264.7 cells. It counts as cell-based. The note with it: 0.1 μg/mL LPS, 14 hours co-incubation. On the procedure: as §3

A further data set concerns rat colon microsomes. The data set is described as follows: Glucuronidation by rat colon microsomes. Type of data set: in vitro ADME. On the procedure: as §1, with “5B” for “5A”, “glucuronidation” for “metabolism”, “in liver and colon microsomes of rats.” for “via glucuronidation pathway.”, “6a1-6a4” for “all the new locally bioavailable COX-2 inhibitors”, “and colon microsomes were measured.” for “microsomes.”, “(PAPS), 10” for “(PAPS),10”
as §2

The next data set concerns human liver microsomes. The data set is described as follows: Glucuronidation by human liver microsomes. Type of data set: in vitro ADME. On the procedure:
as §1, with “FIG. 5D” for “FIG. 5A”, “of phenolics.” for “of phenolics via glucuronidation pathway.”, “of 6a1-6a4” for “of all the new locally bioavailable COX-2 inhibitors”, “by human” for “by rat”, “liver and intestinal” for “liver”, “Table 4.” for “Table 3.”
as §2

Data set [4] deals with human Colon S9. Description: Sulfation by human colon S9. Type of data set: in vitro ADME. The following applies: substrate 10 μM. On the procedure:
as §1, with “FIG. 5D” for “FIG. 5A”, “of phenolics.” for “of phenolics via glucuronidation pathway.”, “of 6a1-6a4” for “of all the new locally bioavailable COX-2 inhibitors”, “by human” for “by rat”, “liver and intestinal” for “liver”, “Table 4.” for “Table 3.”
as §2

Data set [5] relates to human Colon S9. Description: Glucuronidation by human colon S9. It counts as in vitro ADME. The following applies: substrate 10 μM. On the procedure:
as §1, with “FIG. 5D” for “FIG. 5A”, “of phenolics.” for “of phenolics via glucuronidation pathway.”, “of 6a1-6a4” for “of all the new locally bioavailable COX-2 inhibitors”, “by human” for “by rat”, “liver and intestinal” for “liver”, “Table 4.” for “Table 3.”
In vitro tools were employed to help predict the in vivo metabolism rates of the COX-2 inhibitors that are phenolics. […] By employing microsomes and S9 fractions prepared from both rats and humans, it could be determined if the results obtained in the rat model could be reasonably extrapolated to humans. In these experiments, raloxifene and genistein, two phenolic compounds which undergo extensive first-pass metabolism, were selected as controls.

recombinant human COX-1, sequence (P23219 24-599): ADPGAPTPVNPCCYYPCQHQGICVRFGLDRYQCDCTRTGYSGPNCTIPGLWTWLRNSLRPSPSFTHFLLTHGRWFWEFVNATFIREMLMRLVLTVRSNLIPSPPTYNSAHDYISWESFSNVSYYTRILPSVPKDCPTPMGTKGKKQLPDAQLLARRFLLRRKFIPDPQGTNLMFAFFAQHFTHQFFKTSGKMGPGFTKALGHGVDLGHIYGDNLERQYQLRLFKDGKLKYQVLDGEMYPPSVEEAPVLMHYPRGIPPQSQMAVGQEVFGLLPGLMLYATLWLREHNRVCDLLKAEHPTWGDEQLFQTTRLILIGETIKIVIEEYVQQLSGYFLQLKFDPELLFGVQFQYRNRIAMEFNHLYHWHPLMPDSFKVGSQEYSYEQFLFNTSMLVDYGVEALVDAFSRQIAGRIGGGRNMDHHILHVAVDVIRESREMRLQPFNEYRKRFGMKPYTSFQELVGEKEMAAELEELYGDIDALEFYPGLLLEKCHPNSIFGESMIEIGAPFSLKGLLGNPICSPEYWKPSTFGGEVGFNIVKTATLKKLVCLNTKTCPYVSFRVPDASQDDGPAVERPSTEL

Consider `COc1ccc(-c2cc(COc3ccccc3O)nn2-c2ccc(S(N)(=O)=O)cc2)cc1` [Compound 6c1], for which the concentration for half-maximal inhibition (IC50) is 19.8 µM at recombinant human COX-1 and 40.3 nM at human COX-2 [1]. Moreover, in the data set on rat liver microsomes, the “Glucuronidation rates by liver microsomes (Mean)” value is 7026 pmol/mg/min.

In the case of `Cc1ccc(-c2cc(COc3ccc4c(=O)c(O)c(-c5ccccc5)oc4c3)nn2-c2ccc(S(N)(=O)=O)cc2)cc1` [Compound 6a4], the IC50 on recombinant human COX-1 was 16 µM; against human COX-2 [3], 0.162 ± 0.065 µM; on mouse COX-2 it was 0.303 ± 0.055 µM; at human COX-2 [1], 2590 nM. Besides, the “Glucuronidation rates by intestine microsomes (Mean)” value in [2] worked out at 2134 pmol/mg/min. For the same molecule, in the data set on rat colon microsomes, the “Glucuronidation rates by colon microsomes (Mean)” value was 571 pmol/mg/min. In addition, the “Glucuronidation rates by liver microsomes (Mean)” value stood at 291 pmol/mg/min in the data set with human liver microsomes and 4763 pmol/mg/min in the data set on rat liver microsomes. Further, in the data set with rat liver microsomes, the “Glucuronidation by rat liver microsomes (FIG. 5A)” value is listed as “rapidly glucuronidated”.

`COc1ccc(-c2cc(COc3ccc(O)cc3)nn2-c2ccc(S(N)(=O)=O)cc2)cc1` [Compound 6c3]: the half-inhibitory concentration (IC50) was 12.6 µM on recombinant human COX-1, 0.019 ± 0.002 µM on mouse COX-2 and 623 nM at human COX-2 [1]. In addition, in the data set with rat liver microsomes, the “Glucuronidation rates by liver microsomes (Mean)” value amounted to 934 pmol/mg/min.

Turning to `CCOC(=O)c1cc(-c2ccc(C)cc2)n(-c2ccc(S(N)(=O)=O)cc2)n1` [Compound 3a], the figures for the IC50 against human COX-2 [3] and on mouse COX-2 were 0.149 ± 0.026 µM and 0.071 ± 0.021 µM, respectively.

For the molecule `NS(=O)(=O)c1ccc(-n2nc(COc3cccc(O)c3)cc2-c2ccccc2)cc1` [Compound 6b2], the IC50 on recombinant human COX-1 came out at 145 µM; on mouse COX-2, 4.31 ± 0.629 µM; at human COX-2 [1], 207 nM. Besides, the “Glucuronidation rates by liver microsomes (Mean)” value in the data set on rat liver microsomes was found to be 4132 pmol/mg/min.

With `Cc1ccc(-c2cc(COCc3ccccc3O)nn2-c2ccc(S(N)(=O)=O)cc2)cc1` [Compound 7a1], the half-maximal inhibitory concentration (IC50) on recombinant human COX-1 came out at 4.9 µM; on human COX-2 [1], 1.11 nM. In the data set on rat colon microsomes, the “Glucuronidation rates by colon microsomes (Mean)” value was determined as 160 pmol/mg/min. Moreover, the “Sulfation rates by human Colon S9 (Mean)” value in the data set with human Colon S9 [4] was determined as 40 pmol/mg/min. In addition, the “Glucuronidation rates by liver microsomes (Mean)” value in the data set with human liver microsomes was determined as 2510 pmol/mg/min; in the data set with rat liver microsomes it was 1050 pmol/mg/min. For the same molecule, the “Glucuronidation rates by human Colon S9 (Mean)” value in the data set on human Colon S9 [5] stood at 190 pmol/mg/min.

For the molecule `NS(=O)(=O)c1ccc(-n2nc(COc3ccccc3O)cc2-c2ccccc2)cc1` [Compound 6b1], the IC50 at recombinant human COX-1 is 197 µM; on human COX-2 [1], 54500 nM. Further, in the data set on rat liver microsomes, the “Glucuronidation rates by liver microsomes (Mean)” value was 7453 pmol/mg/min.

`NS(=O)(=O)c1ccc(-n2nc(COc3ccc(O)cc3)cc2-c2ccccc2)cc1` [Compound 6b3]: the IC50 at recombinant human COX-1 was 0.028 µM; on mouse COX-2, 0.033 ± 0.004 µM; at human COX-2 [1], 2250 nM. Further, the “Glucuronidation rates by liver microsomes (Mean)” value with rat liver microsomes amounted to 656 pmol/mg/min.

In the case of `COc1ccc(-c2cc(COc3cccc(O)c3)nn2-c2ccc(S(N)(=O)=O)cc2)cc1` [Compound 6c2], the half-inhibitory concentration (IC50) on recombinant human COX-1 is 1.1 µM; at mouse COX-2, 2.38 ± 0.502 µM; on human COX-2 [1], 353 nM. Moreover, the “Glucuronidation rates by liver microsomes (Mean)” value with rat liver microsomes is 3092 pmol/mg/min.

Take `COc1ccccc1COCc1cc(-c2ccc(C)cc2)n(-c2ccc(S(N)(=O)=O)cc2)n1` [Compound 7a3]: the IC50 at recombinant human COX-1 turned out to be 19.8 µM; at human COX-2 [1] it was 40.3 nM.
